For data set [1] the following is noted: including 5 mg twice a day for a week and 0.5 mg per day for three months; cited from earlier work.
The conditions of data set [2]: adducin- and ouabain-induced forms of hypertension; normal systolic blood pressure of healthy individuals not lowered; cited from earlier work.
For data set [3], the target named is T1, ATP1A1 (Homo sapiens, UniProt P05023).
T1 construct: ATP1A1 being expressed ubiquitously and being the predominant isoform expressed in A549 cells; endogenous in cells; host or cells: A549 cells (ATCC CCL-185)
The experiment in a line: RSV-induced ATP1A1 clustering in A549 cells by confocal immunofluorescence. The data set is classed as cell-based. As to conditions: A549 treated overnight, RSV MOI=5 PFU/cell, 5 hours. An excerpt: Whether PST2238 treatment had any effect on the clustering of ATP1A1 and RSV proteins was also investigated.
Immunofluorescence microscopy.

Data set [4] concerns RSV. The experiment in a line: Preliminary studies of RSV infection with an inhibitor of clathrin-mediated endocytosis. In kind it is cell-based, human respiratory syncytial virus (RSV). As to conditions: non-toxic concentrations.
Data set [5] deals with EGFR Tyr845. The experiment in a line: EGFR phosphorylation array (pTyr845) in A549 cells. As to conditions: without RSV infection.
Protocol: A549 cells were treated as indicated (either siRNA knock down for 48 h or pre-treatment with the chemical compounds ouabain [25 n1\4], PST2238 [40 μM] or Src Inhibitor-I (SrcI-I) [6.25 μM] and PP2 [12.5 μM] for 5 h pre-inoculation). Cells were serum starved overnight, before they were inoculated with wt RSV (MOI=5 PFU/cell) and incubated at 37° C. Cells were lysed 5 h p.i. and subjected to a phospho-specific EGFR array (RayBiotech, Inc.). (FIG. 8A) Representative array spots of pTyr845 EGFR and its corresponding pan EGFR for each treatment are shown. […] (FIG. 8D) As control, PST2238 or Ouabain pretreated A549 cells were stimulated with EGF (100 ng/ml) for 45 min and the pTyr845 EGFR signal was quantified. The statistical significance of the differences were determined by one-way analysis of variance with Dunnett multiple-comparison test and the significance p-values are indicated for each comparison. […]
Quantification of EGFR phosphorylation. […] The protein concentration of the lysate was quantified by bicinchoninic acid (BCA) assay (Thermo Fisher Scientific) and lysate containing 150 μg total protein was used for each array. […] The light emission of the array spots was detected by exposure to X-ray films. The films were scanned and the intensity values of each spot were quantified by ImageQuant TL (Array Version 8.1, GE Healthcare). […]
Data set [6] has as its system RSV-GFP. The experiment in a line: RSV-GFP infection of A549 cells, GFP intensity of total well by ELISA reader. As to conditions: discussion statement.
Protocol: Quantification of RSV infection by viral expressed GFP. For the evaluation of RSV infection, RSV-GFP, a recombinantly derived virus that expresses enhanced green fluorescent protein (eGFP) from an additional gene inserted between the P and M genes, was used. SiRNA transfected or pre-treated A549 cells, seeded in a 12-well plate, were inoculated with an MOI of 1.0 PFU/cell. Inoculum was adsorbed for 2 h by incubating on a rocking platform at 37° C., after which the inoculum was washed off and replaced with fresh media. The infected cells were incubated for 17 h at 37° C. and 5% CO2 and the infectivity was evaluated by quantifying GFP either by ELISA reader or flow cytometry. For the ELISA reader quantification, the GFP intensity of the infected monolayer was quantified by an area scan (average GFP intensity of 29 individual measurements per well) on a Synergy 2 ELISA reader (BioTek). […] For the flow cytometry based GFP quantification, the cells were detached with 1 mM EDTA, stained with LIVE/DEAD fixable dead cell staining kit (Life Technologies), and fixed with 4% paraformaldehyde (PFA, Electron Microscopy Science, PA). The GFP intensities of single, live cells were analyzed on a Canto II flow cytometer (BD Biosciences, Franklin Lakes, N.J.).

As for `C[C@]12CC[C@H](O)C[C@H]1CC[C@@H]1[C@@H]2CC[C@]2(C)[C@@](O)(c3ccoc3)CC[C@]12O` [PST2238, (3β,5β,14β)-21,23-Epoxy-24-norchola-20,22-diene-3,14,17-triol], the “toxicity in human and animal models” value in data set [1] is on record as “non-toxic”. Besides, the “effect on blood pressure” value in data set [2] is given as “lowers the blood pressure”. In addition, in data set [3], the “effect on the clustering of ATP1A1” value is reported as “no apparent effect”.
`CN(C)CCCN1c2ccccc2Sc2ccc(Cl)cc21` [chlorpromazine]: the “effects on RSV infection” value in data set [4] is reported as “did not detect effects”.
As to `C[C@@H]1O[C@@H](O[C@H]2C[C@@H](O)[C@]3(CO)[C@@H]4[C@@H](CC[C@]3(O)C2)[C@@]2(O)CCC(C3=CC(=O)OC3)[C@@]2(C)C[C@@H]4O)[C@H](O)[C@H](O)[C@H]1O` (stereo partly drawn) [ouabain, (1β,3β,5β,11α)-3-[(6-Deoxy-α-L-mannopyranosyl)oxy]-1,5,11,14,19-pentahydroxycard-20(22)-enolide], the “detection of phosphorylation of EGFR Tyr845 following treatment with compound alone” value in data set [5] is “not following treatment with ouabain”. In addition, the “concentrations at which inhibition of RSV infection was achieved” value in data set [6] is on record as “sub-nanomolar”.

The values are drawn from patent US11337988B2, “Use of ouabain antagonists to inhibit viral infection” (priority 2018, dated 2022).
